IC50 data for four compounds are collected here from patent US20250152591A1, “TREATMENT OF HEMATOLOGICAL MALIGNANCIES WITH MENIN INHIBITORS AND P-GLYCOPROTEIN INHIBITORS” (Kura Oncology, Inc., priority 2022, published 2025).

A word on the IC50: it is the concentration needed to halve the response being measured.

In one data set the target is T1, Menin (Homo sapiens, UniProt O00255).
T1 sequence (O00255 1-610): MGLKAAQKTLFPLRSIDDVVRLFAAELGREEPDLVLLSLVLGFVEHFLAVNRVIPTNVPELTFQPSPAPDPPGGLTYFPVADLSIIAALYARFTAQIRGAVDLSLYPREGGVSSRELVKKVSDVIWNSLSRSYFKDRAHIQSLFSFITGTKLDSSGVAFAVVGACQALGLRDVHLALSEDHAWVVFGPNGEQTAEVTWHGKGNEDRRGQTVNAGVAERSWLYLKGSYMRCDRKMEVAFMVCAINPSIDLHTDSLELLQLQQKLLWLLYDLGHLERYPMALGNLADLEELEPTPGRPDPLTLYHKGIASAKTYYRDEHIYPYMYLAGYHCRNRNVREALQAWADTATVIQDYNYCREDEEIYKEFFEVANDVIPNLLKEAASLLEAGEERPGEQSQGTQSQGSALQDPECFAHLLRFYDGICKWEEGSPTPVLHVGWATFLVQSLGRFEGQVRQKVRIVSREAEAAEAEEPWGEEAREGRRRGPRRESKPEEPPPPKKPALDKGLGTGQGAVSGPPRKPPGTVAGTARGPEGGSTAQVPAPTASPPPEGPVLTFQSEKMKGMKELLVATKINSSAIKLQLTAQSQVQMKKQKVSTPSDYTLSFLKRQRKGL
Kind of data set: Menin binding, fluorescence polarization assay. As to conditions: fluorescence polarization assay analogous to WO2017/161028, Example 6. How it is done:
Menin binding was evaluated using an assay analogous to the fluorescence polarization assay described in PCT Publ. No. WO2017/161028, Example 6.

A further data set deals with MV4;11-PGP cell line. Kind of data set: CellTiter-Glo cell viability assay, MV4;11-PGP. On the set-up: unit of the concentration uncertain. As to conditions: second set of experiments. The format is cell-based. On the procedure: (§1) The influence of efflux pumps on the antitumor activity of the test compounds at steady state (more clinically relevant) were evaluated using P-gp-transfected AML cells (MV4;11 cells) in 6-day viability assays.
(§2) A P-gp-expressing KMT2A(MLL)-rearranged cell line model was developed by lentiviral transduction of the MV4;11 parental cell line and then selection for either Luciferase ORF (MV4;11-Control) or P-gp ORF (MV4;11-PGP).
(§3) […] Cell viability was measured by CellTiter-Glo® Luminescent Cell Viability Assay (CTG assay, Promega Corp.) and % Viability was quantified by normalizing to the luminescence values of DMSO-only treated cells. The dose-response curves and IC50's were calculated using GraphPad Prism 9.4.1.
(§4) The measured luminescence in the live cells of the MV4;11-Control and MV4;11-PGP cells that were treated with Compound I only (+DMSO), Compound I+posaconazole […], and valspodar (1 mM) are shown in FIGS. 5A and 5B.
(§5) In a second set of experiments, MV4;11-Control and MV4;11-PGP cell lines were treated as described above with five menin inhibitors, including Compound I, SNDX-5613, Compound A, Compound B, and Compound C, at concentrations ranging from 0 to 1000 nM. All tested compounds dropped in potency due to the P-gp expression as shown in FIGS. 6A-6J and in Tables 5 and 6 (indicated by increased IC50 values between “MV4;11-Control (Compound+DMSO)” and “MV4;11-PGP (Compound+DMSO)” entries).
A general note: ATP-based viability assays read luminescence as a measure of living cells.

For another data set, the system named is OCI-AML3-PGP cell line. Kind of data set: Cell viability assay, OCI-AML3-PGP. It counts as cell-based. Also on record: unit of the concentration uncertain. As to conditions: 168 h, 7 days. On the procedure:
(§6) A third set of experiments was conducted in the cell line OCI-AML3, which carries the W288Cfs*12 mutation in NPM protein. The P-gp expressing OCI-AML3 cell line (OCI-AML3-PGP) and the Luciferase expressing OC-AML3 cell line (OCI-AML3-Control) were established by lentivirally transducing P-gp ORF or Luciferase ORF. Cells were treated with Compound I or SNDX-5613 for 7 days to assess the IC50 values.

Data set [1] deals with OCI-AML3-Control cell line. Kind of data set: Cell viability assay, OCI-AML3-Control. Also on record: unit of the concentration uncertain. As to conditions: 168 h, 7 days. The format is cell-based. How it is done: as §6
A further data set relates to MOLM13-Control cell line. Kind of data set: Cell viability assay, MOLM13-Control. The format is cell-based. Also on record: unit of the concentration uncertain. As to conditions: 168 h, 7 days. How it is done: (§7) The effects described above were investigated in an AML cell line, MOLM-13, which carries a KA4T2A (MLL)-rearrangement mutation. The P-gp expressing MOLM-13 cell line (MOLM13-PGP) and the Luciferase expressing MOLM-13 cell line (MOLM13-Control) were established by lentivirally transducing P-gp ORF or Luciferase ORF. Cells were plated and treated with test compound for 7 days.

In another data set the test system is MV4;11-Control cell line. Kind of data set: CellTiter-Glo cell viability assay, MV4;11-Control. The format is cell-based. On the set-up: unit of the concentration uncertain. As to conditions: second set of experiments. On the procedure:
as §1, §2, §3, §4, §5

The next data set concerns MOLM13-PGP cell line. Kind of data set: Cell viability assay, MOLM13-PGP. The format is cell-based. Also on record: unit of the concentration uncertain. As to conditions: 168 h, 7 days. On the procedure: as §7

Each structure is given as a SMILES string. Read-outs that look alike come from different tables or passages of the source. Where only a bound is given, the exact number is not on record here.

For the compound `CNc1nc(NC2CCN(Cc3ccc4c(cc(C#N)n4C[C@H](C)N4CCN(S(C)(=O)=O)CC4)c3C)CC2)c2cc([C@H](O)C(F)(F)F)sc2n1` [Compound IC, 4-methyl-5-((4-((2-(methylamino)-6-((R)-2,2,2-trifluoro-1-hydroxyethyl)thieno[2,3-d]pyrimidin-4-yl)amino)piperidin-1-yl)methyl)-1-((S)-2-(4-(methylsulfonyl)piperazin-1-yl)propyl)-1H-indole-2-carbonitrile], at Menin, the IC50 was determined as 401 nM.
As to `CNc1nc(NC2CCN(Cc3ccc4c(cc(C#N)n4C[C@H](C)N4CCN(S(C)(=O)=O)CC4)c3C)CC2)c2cc([C@@H](O)C(F)(F)F)sc2n1` [Compound IB, 4-methyl-5-((4-((2-(methylamino)-6-((S)-2,2,2-trifluoro-1-hydroxyethyl)thieno[2,3-d]pyrimidin-4-yl)amino)piperidin-1-yl)methyl)-1-((S)-2-(4-(methylsulfonyl)piperazin-1-yl)propyl)-1H-indole-2-carbonitrile], the concentration for half-maximal inhibition (IC50) on Menin was 63.5 nM.
Take `Cc1c(CN2CCC(Nc3nc(N)nc4sc(CC(F)(F)F)cc34)CC2)ccc2c1cc(C#N)n2C[C@H](C)N1CCN(S(C)(=O)=O)CC1` [Compound IA]: the IC50 on Menin was 36.2 nM.
Consider `CCN(C(=O)c1cc(F)ccc1Oc1cncnc1N1CC2(CCN(C[C@H]3CC[C@H](NS(=O)(=O)CC)CC3)CC2)C1)C(C)C` [SNDX-5613], for which the IC50 in the data set on MV4;11-PGP cell line (144 h, 0 to 1000 nM, Table 5, read-out: IC50 MV4;11-PGP (Compound + DMSO)) was 183 nM; in the data set on MV4;11-PGP cell line (144 h, 0 to 1000 nM, Table 6, read-out: IC50 MV4;11-PGP (Compound + DMSO)), 173 nM; in the data set with MV4;11-PGP cell line (posaconazole (1.5 (unit uncertain)), Table 5, read-out: IC50 MV4;11-PGP (Compound + posaconazole)), 17.1 nM; with MV4;11-PGP cell line (valspodar (1 (unit uncertain)), Table 6, read-out: IC50 MV4;11-PGP (Compound + valspodar)) it was 8.15 nM; in the data set on OCI-AML3-PGP cell line (Table 9, read-out: IC50 OCI-AML3-PGP (Compound + DMSO)), more than 300 nM; in the data set with OCI-AML3-PGP cell line (posaconazole (0.75 (unit uncertain)), Table 9, read-out: IC50 OCI-AML3-PGP (Compound + posaconazole)), 47.7 nM. Further, the half-maximal inhibitory concentration (IC50) amounted to 31.7 nM with OCI-AML3-PGP cell line (valspodar (1 (unit uncertain)), Table 10, read-out: IC50 OCI-AML3-PGP (Compound + valspodar)); 25.7 nM in data set [1] (Table 9, read-out: IC50 OCI-AML3-Control (Compound + DMSO)); 26.4 nM in data set [1] (Table 10, read-out: IC50 OCI-AML3-Control (Compound + DMSO)); 38.8 nM in data set [1] (posaconazole (0.75 (unit uncertain)), Table 9, read-out: IC50 OCI-AML3-Control (Compound + posaconazole)); 41.5 nM in data set [1] (valspodar (1 (unit uncertain)), Table 10, read-out: IC50 OCI-AML3-Control (Compound + valspodar)); 30.1 nM with MOLM13-Control cell line (Table 7, read-out: IC50 MOLM13-Control (Compound + DMSO)). Further, the IC50 with MOLM13-Control cell line (Table 8, read-out: IC50 MOLM13-Control (compound + DMSO)) was 28 nM; with MOLM13-Control cell line (posaconazole (1.5 (unit uncertain)), Table 7, read-out: IC50 MOLM13-Control (Compound + posaconazole)), 24.8 nM; in the data set on MOLM13-Control cell line (valspodar (1 (unit uncertain)), Table 8, read-out: IC50 MOLM13-Control (Compound + valspodar)), 29.5 nM; with MV4;11-Control cell line (144 h, 0 to 1000 nM, Table 5, read-out: IC50 MV4;11-Control (Compound + DMSO)) it was 8.55 nM; in the data set on MV4;11-Control cell line (144 h, 0 to 1000 nM, Table 6, read-out: IC50 MV4;11-Control (Compound + DMSO)) it was 8.58 nM; in the data set on MV4;11-Control cell line (posaconazole (1.5 (unit uncertain)), Table 5, read-out: IC50 MV4;11-Control (Compound + posaconazole)) it was 7.33 nM. For the same compound, the IC50 with MV4;11-Control cell line (valspodar (1 (unit uncertain)), Table 6, read-out: IC50 MV4;11-Control (Compound + valspodar)) was 7.61 nM; with MOLM13-PGP cell line (Table 7, read-out: IC50 MOLM13-PGP (Compound + DMSO)), more than 900 nM; in the data set on MOLM13-PGP cell line (posaconazole (1.5 (unit uncertain)), Table 7, read-out: IC50 MOLM13-PGP (Compound + posaconazole)), 38.6 nM; in the data set with MOLM13-PGP cell line (valspodar (1 (unit uncertain)), Table 8, read-out: IC50 MOLM13-PGP (Compound + valspodar)) it was 37.1 nM.
